In ChEMBL document CHEMBL1158699, “Bioactive benzophenones from Garcinia xanthochymus fruits” (J Nat Prod, 2005):
The source made the active and inactive calls. The calls are words filed in the database; no cut-off is given here.

These compounds were tested on SW480 (assay: Cytotoxicity against human SW480 cells after 72 hrs by MTT assay). Conditions: SW480, 72 h.
Format: functional, cell-based

SMILES | IC50 [µM]
O=c1cc(-c2ccc(O)c(-c3c(O)cc(O)c4c(=O)cc(-c5ccc(O)cc5)oc34)c2)oc2cc(O)cc(O)c12 [AMENTOFLAVONE] | 111
O=C1c2c(O)cc(O)cc2OC(c2ccc(O)cc2)C1c1c(O)cc(O)c2c(=O)cc(-c3ccc(O)c(O)c3)oc12 (racemic) | 89
O=c1c(-c2c(O)cc(O)c3c(=O)cc(-c4ccc(O)cc4)oc23)c(-c2ccc(O)cc2)oc2cc(O)cc(O)c12 | 185
COc1cc2c(=O)c3c(O)cc(O)cc3oc2cc1O [ALLOATHYRIOL] | 117
O=C1c2c(O)cc(O)cc2OC(c2ccc(O)cc2)C1c1c(O[C@@H]2O[C@H](CO)[C@@H](O)[C@H](O)[C@H]2O)cc(O)c2c(=O)cc(-c3ccc(O)c(O)c3)oc12 (mixture of isomers) | > 200

The compounds below were run on Radical scavenging activity (assay: Antioxidant activity assessed as DPPH radical scavenging activity). Conditions: not given.
Format: functional

IC50 [µM] | SMILES | Activity
184 | O=c1cc(-c2ccc(O)c(-c3c(O)cc(O)c4c(=O)cc(-c5ccc(O)cc5)oc34)c2)oc2cc(O)cc(O)c12 [AMENTOFLAVONE] | –
62 | O=C1c2c(O)cc(O)cc2OC(c2ccc(O)cc2)C1c1c(O)cc(O)c2c(=O)cc(-c3ccc(O)c(O)c3)oc12 (racemic) | –
> 400 | O=c1c(-c2c(O)cc(O)c3c(=O)cc(-c4ccc(O)cc4)oc23)c(-c2ccc(O)cc2)oc2cc(O)cc(O)c12 | –
– | COc1cc2c(=O)c3c(O)cc(O)cc3oc2cc1O [ALLOATHYRIOL] | inactive
116 | O=C1c2c(O)cc(O)cc2OC(c2ccc(O)cc2)C1c1c(O[C@@H]2O[C@H](CO)[C@@H](O)[C@H](O)[C@H]2O)cc(O)c2c(=O)cc(-c3ccc(O)c(O)c3)oc12 (mixture of isomers) | –
